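Following 48 hours of exposure in 96-well plates, responses at five concentrations were used to interpolate endpoints linearly. Abbreviation: GI50, concentration required for 50% inhibition of growth. TGI marks complete inhibition of growth.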
Columns and labels:
Experiment in all cases: inhibition of tumour cell growth, NCI panel, 48 h
[1] = tested on: CCRF-CEM leukemia
[2] = tested on: TK-10 renal
[3] = tested on: SF-295 CNS
[4] = tested on: SK-MEL-2 melanoma
[5] = tested on: NCI-H522 lung
[6] = tested on: OVCAR-8 ovarian
[7] = tested on: UACC-257 melanoma
[8] = tested on: SF-539 CNS
[9] = tested on: SK-OV-3 ovarian
[10] = tested on: ACHN renal
[11] = tested on: UO-31 renal
[12] = tested on: MOLT-4 leukemia
[13] = tested on: RPMI-8226 leukemia
[14] = tested on: A498 renal
[15] = tested on: K-562 leukemia
[16] = tested on: COLO 205 colon
[17] = tested on: HCT-116 colon
[18] = tested on: BT-549 breast
[19] = tested on: UACC-62 melanoma
[20] = tested on: HS 578T breast
[21] = tested on: HT29 colon
[22] = tested on: NCI-H460 lung
[23] = tested on: NCI/ADR-RES ovarian
[24] = tested on: SN12C renal
[25] = tested on: NCI-H226 lung
[26] = tested on: DU-145 prostate
[27] = tested on: PC-3 prostate
[28] = tested on: T-47D breast
[29] = tested on: SK-MEL-28 melanoma
[30] = tested on: MDA-MB-231 breast
[31] = tested on: NCI-H23 lung
[32] = tested on: SW-620 colon
[33] = tested on: CAKI-1 renal
[34] = tested on: MCF7 breast
[35] = tested on: MALME-3M melanoma
[36] = tested on: LOX IMVI melanoma
[37] = tested on: SF-268 CNS
[38] = tested on: OVCAR-5 ovarian
[39] = tested on: OVCAR-4 ovarian
[40] = tested on: SR leukemia
[41] = tested on: MDA-MB-435
[42] = tested on: 786-0 renal
[43] = tested on: U251 CNS
[44] = tested on: HCC-2998 colon
[45] = tested on: HCT-15 colon
[46] = tested on: HOP-92 NSCLC
[47] = tested on: OVCAR-3 ovarian
[48] = tested on: KM12 colon
[49] = tested on: HL-60(TB) leukemia
[50] = tested on: EKVX NSCLC
[51] = tested on: RXF 393 renal
[52] = tested on: SNB-75 CNS
[53] = tested on: A549 NSCLC
[54] = tested on: SK-MEL-5 melanoma
[55] = tested on: HOP-62 NSCLC
[56] = tested on: IGROV1 ovarian
[57] = tested on: SNB-19 CNS

CC1=C2C(=C[C@@](C)(COC(=O)c3ccc(S(=O)(=O)F)cc3)[C@@H]2O)C(=O)[C@](C)(O)C12CC2 was tested, and the GI50 [1] was 3210 nM, the TGI [1] was over 28000 nM and the GI50 [2] was 2510 nM. It also gave a TGI [2] of 6470 nM, a GI50 [3] of 2140 nM and a TGI [3] of 8200 nM. For the same compound, the GI50 [4] was 613 nM, the TGI [4] was 1290 nM and the GI50 [5] was 745 nM. It also gave a TGI [5] of 2530 nM, a GI50 [6] of 903 nM and a TGI [6] of 3620 nM. For the same compound, the GI50 [7] was 2050 nM, the TGI [7] was 4780 nM and the GI50 [8] was 1860 nM. For the same compound, the TGI [8] was 3710 nM, the GI50 [9] was 2520 nM and the TGI [9] was 7890 nM. For the same compound, the GI50 [10] was 541 nM, the TGI [10] was 1730 nM and the GI50 [11] was 1610 nM. For the same compound, the TGI [11] was 3090 nM, the GI50 [12] was 2020 nM and the TGI [12] was over 25800 nM. It also gave a GI50 [13] of 24500 nM, a TGI [13] of over 74200 nM and a GI50 [14] of 2270 nM. For the same compound, the TGI [14] was 5620 nM, the GI50 [15] was 3410 nM and the TGI [15] was over 100000 nM. The GI50 [16] was 951 nM, the TGI [16] was 2720 nM and the GI50 [17] was 587 nM. It also gave a TGI [17] of 2500 nM, a GI50 [18] of 1220 nM and a TGI [18] of 2840 nM. It also gave a GI50 [19] of 894 nM, a TGI [19] of 2560 nM and a GI50 [20] of 2420 nM. It also gave a TGI [20] of 9570 nM, a GI50 [21] of 498 nM and a TGI [21] of 2670 nM. For the same compound, the GI50 [22] was 614 nM, the TGI [22] was 1870 nM and the GI50 [23] was 815 nM. For the same compound, the TGI [23] was 3970 nM, the GI50 [24] was 1200 nM and the TGI [24] was 5460 nM. For the same compound, the GI50 [25] was 2300 nM, the TGI [25] was 9140 nM and the GI50 [26] was 522 nM. It also gave a TGI [26] of 3040 nM, a GI50 [27] of 1710 nM and a TGI [27] of over 29100 nM. The GI50 [28] was 2060 nM, the TGI [28] was 18800 nM and the GI50 [29] was 556 nM. The TGI [29] was 2050 nM, the GI50 [30] was 1350 nM and the TGI [30] was 6620 nM. For the same compound, the GI50 [31] was 1000 nM, the TGI [31] was 3620 nM and the GI50 [32] was 1970 nM. It also gave a TGI [32] of 8790 nM, a GI50 [33] of 631 nM and a TGI [33] of 2450 nM. It also gave a GI50 [34] of 596 nM, a TGI [34] of 9310 nM and a GI50 [35] of 785 nM. For the same compound, the TGI [35] was 2330 nM, the GI50 [36] was 588 nM and the TGI [36] was 2220 nM. For the same compound, the GI50 [37] was 1060 nM, the TGI [37] was 6130 nM and the GI50 [38] was 982 nM. It also gave a TGI [38] of 5120 nM, a GI50 [39] of 1690 nM and a TGI [39] of 4390 nM. The GI50 [40] was 1360 nM, the TGI [40] was over 22600 nM and the GI50 [41] was 1170 nM. The TGI [41] was 2980 nM, the GI50 [42] was 2150 nM and the TGI [42] was 7930 nM. The GI50 [43] was 1400 nM, the TGI [43] was over 25100 nM and the GI50 [44] was 945 nM. For the same compound, the TGI [44] was 2710 nM, the GI50 [45] was 424 nM and the TGI [45] was 2240 nM. The GI50 [46] was 2170 nM, the TGI [46] was 6010 nM and the GI50 [47] was 906 nM. It also gave a TGI [47] of 3800 nM, a GI50 [48] of 4280 nM and a TGI [48] of 24900 nM. For the same compound, the GI50 [49] was 566 nM, the TGI [49] was 5910 nM and the GI50 [50] was 2420 nM. It also gave a TGI [50] of 6470 nM, a GI50 [51] of 522 nM and a TGI [51] of 1230 nM. For the same compound, the GI50 [52] was 1490 nM, the TGI [52] was 3070 nM and the GI50 [53] was 2870 nM. For the same compound, the TGI [53] was over 26100 nM, the GI50 [54] was 1490 nM and the TGI [54] was 3510 nM. The GI50 [55] was 2550 nM, the TGI [55] was 13800 nM and the GI50 [56] was 941 nM. The TGI [56] was 5060 nM, the GI50 [57] was 1820 nM and the TGI [57] was 10400 nM.

Reference: PubChem BioAssay (NCI)
